glass transition temperature | Structure (SMILES)
47.00 °C | *Oc1ccc(CC(NC(=O)CCc2ccc(OC(=O)CCCCCCC(*)=O)cc2)C(=O)OCc2ccccc2)cc1 (repeat unit)
68.00 °C | *CCCCCCCCCNC(=O)CCCCC(=O)N* (repeat unit)
47.00 °C | *CC(*)c1ccccc1COCCCCC (repeat unit)
163.00 °C | *Oc1ccc(S(=O)(=O)c2ccc(Oc3ccc(C(C)(C)c4ccc(*)c(C(OC)(C(F)(F)F)C(F)(F)F)c4)cc3C(OC)(C(F)(F)F)C(F)(F)F)cc2)cc1 (repeat unit)
-35.00 °C | *CC(*)C(=O)OCC(F)(F)C(F)(F)C(F)(F)C(F)F (repeat unit)
77.00 °C | *CC(*)(C)C(=O)Oc1ccc(C(=O)Oc2ccc(OC)cc2)cc1 (repeat unit)
69.00 °C | *CC(*)(C)C(=O)OCCCCOc1ccc(OC(=O)c2ccc(OC)c(Br)c2)cc1 (repeat unit)
163.00 °C | *CCCCCCNC(=O)c1cc(C(=O)N*)cc(C(C)(C)C)c1 (repeat unit)
-69.20 °C | *O[Si](*)(CCCOCCOCCOCCOC)CCCOCCOCCOCCOC (repeat unit)
53.00 °C | *CC(*)(F)C(=O)OCCC(F)(F)C(F)(F)C(F)(F)C(F)(F)C(F)(F)C(F)(F)C(F)(F)C(F)(F)C(F)(F)C(F)(F)F (repeat unit)
50.50 °C | *Oc1cc(CCCCCCCC)cc(OC(=O)c2cccc(C(*)=O)c2)c1 (repeat unit)
209.50 °C | *c1ccc2c(c1)C(=O)N(c1cccc(Oc3ccc(S(=O)(=O)c4ccc(Oc5cccc(N6C(=O)c7ccc(C(*)(C(F)(F)F)C(F)(F)F)cc7C6=O)c5)cc4)cc3)c1)C2=O (repeat unit)
65.00 °C | *CCOCCOCCOC(=O)c1cc(/N=N/c2ccc(OCC)cc2)ccc1-c1ccc(/N=N/c2ccc(OCC)cc2)cc1C(=O)O* (repeat unit)
205.00 °C | *CCN(CCN1C(=O)c2ccc(C(c3ccc4c(c3)C(=O)N(*)C4=O)(C(F)(F)F)C(F)(F)F)cc2C1=O)c1ccc(/N=N/c2ccc([N+](=O)[O-])cc2C)cc1 (repeat unit)
305.00 °C | *C(=O)c1cc2c(cc1Cl)C(=O)N(c1cc(N3C(=O)c4cc(*)c(Cl)cc4C3=O)cc(C(F)(F)F)c1)C2=O (repeat unit)
-55.00 °C | *CC(*)C(=O)OCC(F)(F)C(F)(F)OC(F)(F)F (repeat unit)

The remaining lines, values behind:

Structure (SMILES) | glass transition temperature
*c1ccc(Oc2ccc(N3C(=O)c4ccc([Si](C)(C)O[Si](C)(C)c5ccc6c(c5)C(=O)N(c5ccc(Oc7ccc(-c8nnc(*)o8)cc7)cc5)C6=O)cc4C3=O)cc2)cc1 (repeat unit) | 190.50 °C
*c1ccc(Cc2ccc(-n3nccc3-c3cccc(-c4ccnn4*)c3)cc2)cc1 (repeat unit) | 212.00 °C
*N=P(N=P(/N=S(/*)Oc1ccc(C(C)(C)C)cc1)(Oc1ccc(-c2ccccc2)cc1)Oc1ccc(-c2ccccc2)cc1)(Oc1ccc(-c2ccccc2)cc1)Oc1ccc(-c2ccccc2)cc1 (repeat unit) | 54.00 °C
*O[Si](C)(C)O[Si](C)(C)Oc1c(C)cc(-c2cc(C)c(*)c(C)c2)cc1C (repeat unit) | 55.00 °C
*CC(*)CCC1CCCCC1 (repeat unit) | 40.00 °C
*C(=O)Nc1ccc(Oc2ccc(-c3ccc(Oc4ccc(NC(=O)c5ccc6c(c5)C(=O)N(c5ccc(Oc7ccc(C8(c9ccc(Oc%10ccc(N%11C(=O)c%12ccc(*)cc%12C%11=O)cc%10)cc9)CC9CC8C8CCCC98)cc7)cc5)C6=O)cc4)cc3C)c(C)c2)cc1 (repeat unit) | 265.00 °C
*c1ccc(C(=O)c2ccc(-n3c(=O)c4cc5c(=O)n(*)c(=O)c5cc4c3=O)cc2)cc1 (repeat unit) | 424.00 °C
*Oc1ccc(S(=O)(=O)c2ccc(Oc3ccc(C(C)(C)c4ccc(OCCCCOc5ccc(C(C)(C)c6ccc(*)cc6)cc5)cc4)cc3)cc2)cc1 (repeat unit) | 140.00 °C
*c1ccc(Oc2ccc(-c3cccc4c3C(=O)N(Oc3ccc(C(=O)c5ccc(Oc6cccc7c6C(=O)N(*)C7=O)cc5)cc3)C4=O)cc2)cc1 (repeat unit) | 252.00 °C
*C(=O)c1ccc2c(c1)/C(=N\c1cccc(Oc3cccc(Oc4cccc(/N=C5/OC(=O)c6ccc(*)cc65)c4)c3)c1)OC2=O (repeat unit) | 190.00 °C
*C(=O)NCCN(CCNC(=O)c1ccc2c(c1)C(=O)N(c1ccc(Oc3ccc(N4C(=O)c5ccc(*)cc5C4=O)cc3)cc1)C2=O)c1ccc(/C=C/c2ccc([N+](=O)[O-])cc2)cc1 (repeat unit) | 224.00 °C
*c1ccc(Oc2ccc(Oc3ccc(P(=O)(c4ccccc4)c4ccc(Oc5ccc(Oc6ccc(-c7nc8ccc(-c9ccc%10nc(*)oc%10c9)cc8o7)cc6)cc5)cc4)cc3)cc2)cc1 (repeat unit) | 223.00 °C
*CCC[Si](*)(C[Si](C)(C)c1ccccc1)C[Si](C)(C)c1ccccc1 (repeat unit) | -36.00 °C
*CC(*)(C)c1ccc2ccccc2n1 (repeat unit) | 193.00 °C
*c1cccc(P(=O)(c2cccc(-n3c(=O)c4cc5c(=O)n(*)c(=O)c5c(-c5ccc(C(F)(F)F)cc5)c4c3=O)c2)c2cc(C(F)(F)F)cc(C(F)(F)F)c2)c1 (repeat unit) | 292.00 °C
*NNC(=O)c1ccccc1C(=O)Nc1cccc(/C=C2\CC/C(=C\c3cccc(NC(=O)c4ccccc4C(*)=O)c3)C2=O)c1 (repeat unit) | 202.10 °C
*C(=O)OCCN(CCOC(=O)c1ccc2c(c1)C(=O)N(c1c(C)cc(Cc3cc(C)c(N4C(=O)c5ccc(*)cc5C4=O)c(C)c3)cc1C)C2=O)c1ccccc1 (repeat unit) | 177.00 °C
*Oc1ccc(OC(=O)c2cc(/N=N/c3ccc(OCC)cc3)ccc2-c2ccc(/N=N/c3ccc(OCC)cc3)cc2C(*)=O)cc1 (repeat unit) | 170.00 °C
*c1ccc(Oc2ccc(Oc3ccc(Oc4ccc(N5C(=O)C6CCC(C7CCC8C(=O)N(*)C(=O)C8C7)CC6C5=O)cc4)cc3)cc2)cc1 (repeat unit) | 217.00 °C
*Nc1ccc(NC(=O)c2cc(C(=O)c3ccc(C(=O)O)c(C(*)=O)c3)ccc2C(=O)O)cc1 (repeat unit) | 213.20 °C
*Oc1cccc2ccc(Oc3ccc(NC(=O)c4cc(C(=O)Nc5ccc(*)cc5)cc(C(C)(C)C)c4)cc3)cc12 (repeat unit) | 263.00 °C
*c1ccc(OC(=O)c2ccc(C(=O)Oc3ccc(-c4nc5ccccc5nc4*)cc3)cc2)cc1 (repeat unit) | 232.00 °C
*Oc1ccc(S(=O)(=O)c2ccc(Oc3ccc(C45CC6CC(CC(c7ccc(*)cc7)(C6)C4)C5)cc3)cc2)cc1 (repeat unit) | 242.00 °C
*c1ccc(Oc2ccc(Oc3ccc(Oc4ccc(-c5cnc6ccc(-c7ccc8ncc(*)nc8c7)cc6n5)cc4)cc3)cc2)cc1 (repeat unit) | 216.00 °C
*Nc1ccc(Cc2ccc(NC(=O)c3cccc(C(*)=O)c3)cc2)cc1 (repeat unit) | 265.00 °C
*NNC(=O)c1ccccc1C(=O)Nc1cccc(/C=C2\CCC/C(=C\c3cccc(NC(=O)c4ccccc4C(*)=O)c3)C2=O)c1 (repeat unit) | 195.00 °C
